Key:
[1] = tested on: HCT-116 cells (colorectal carcinoma); assay: MTT anti-proliferative assay, HCT-116; assay type: cell-based, human
Method: (§1) Anti-proliferative activities of the target compounds were assessed via the standard MTT method[38–40] against three cancer cell lines, namely, hepatocellular carcinoma (HepG-2), colorectal carcinoma (HCT-116), and human breast adenocarcinoma (MCF-7). Doxorubicin was used in this test as a positive control.
(§2) Anti-proliferative activity of the synthesised compounds was estimated using the MTT assay protocol[8]^,[38–40] as shown in Supplementary data.
(§3) 4.2.1. In vitro anti-proliferative activity against MCF-7, HepG-2 and HCT-116 The cells were cultured in RPMI-1640 medium supplemented with 10% fetal bovine serum (FBS), penicillin (100 unit /mL) and streptomycin sulphate (100µg/mL) at 37 °C in a 5% CO2 incubator.
(§4) Then, cells were dropped in 96-well plates at a density of 3-8 × 10^3 cells/well and incubated for two days in a 5% CO2 incubator at 37 °C. Then, the cells were treated with the synthesized compounds and the cell cultures were continued incubated for 24 h. However, Different concentrations of the compound under test (0.0, 5.0, 12.5, 25.0 and 50 mg/ml) were added to the cell monolayer. Then, (3-[4,5-dimethylthiazol-2-yl]- 2,5-diphenyltetrazolium bromide) MTT solution (20 µl, 5mg/mL) was added to each well and incubated for additional 4 h. The formed purple crystals of MTT-formazan were dissolved in 100 µl DMSO each well; the absorbance of each well was measured at 570 nm using a plate reader (EXL 800, USA). All of the compounds were tested three times. The relative cell viability in percentage was calculated. The results for IC50 values of the active compounds are […]
(§5) The data represented the mean of three independent experiments in triplicate and were expressed as means ± SD. […]
(§6) of the cells could survive. […]

[2] = tested on: MCF-7 cells (human breast adenocarcinoma); assay: MTT anti-proliferative assay, MCF-7; assay type: cell-based; conditions: Homo sapiens, MCF7, MTT, mean ± SD of three separate experiments; read-out: In vitro Cytotoxicity IC50 MCF-7
Method: as §1, §2, §3, §4, §5, §6

Calf thymus DNA = assay: DNA intercalation assay (DNA/methyl green colorimetric assay); assay type: binding; conditions: three independent experiments
Method: as §5
4.2.2. DNA intercalation assay (DNA/methyl green colorimetric assay)
Affinity of some compounds for DNA-binding was examined in vitro using DNA/methyl green assay using doxorubicin as a positive control. In this test, a mixture of methyl green (20 mg) and Calf thymus DNA (10 mg) (Sigma– Aldrich) were suspended in 0.05 M TrisHCl buffer (100 mL, pH 7.5) containing 7.5 mM MgSO4. This mixture was stirred continuously for 24 h at 37 °C. Then, ethanolic solution of the test compounds was pitted into the wells of a 96-well microtiter tray at a concentration of 10, 100 and 1000 µM. The excess solvent was removed from each well under vacuum, with subsequent addition of 200 µL of the DNA/methyl green solution. The test samples were incubated for 24 h in dark at ambient temperature. After that, absorbance of each sample was determined at 642.5–645 nm. In this test, the methyl green dye reversibly binds to DNA to form persistent colored complex of DNA/methyl green. This color still stables at neutral pH. When the DNA intercalators were added, the methyl green was displaced from DNA with addition of H2O molecule to the dye resulting in formation of the colorless carbinol leading to a decrease in spectrophotometric absorbance. ΔA value (the difference between DNA/methyl green complex and free cabinol) provides the simplest means for detecting the DNA-binding affinity and relative binding strength. IC50′s were determined by linear regression of data plotted on a semi -log scale and the data were compared with doxorubicin as standard DNA intercalator . […]

[3] = tested on: Solid Ehrlich Carcinoma (SEC); assay: In vivo antitumor activity against Solid Ehrlich Carcinoma; design: species or system Swiss albino mice; conditions: SEC-bearing mice, 5 mg/kg BW I.P.
Method: To examine the in vivo anticancer activity of compound 9d, adult female Swiss albino mice (30 mice) inoculated with I.P. injection of Solid Ehrlich Carcinoma (SEC) tumour cell lines in a volume of 0.2 ml physiological saline contains 1 × 10^6 viable cells for 24 h.
These mice were randomly divided into four groups (7 mice/group). […] Bodyweight and survival were recorded daily until the 24th day in both treated and control groups. At the end of the experiment, the blood of each group was collected under light anaesthesia for the estimation of hematological and biochemical assays. The anaesthetised animals were then sacrificed to evaluate of the antitumor activity and to conduct hematological, biochemical, and histopathological assays, Figure 3.
Adult female Swiss albino mice purchased from Theodor Bilharzia Research Institute, Giza, Egypt, with an average bodyweight of (18–23) g were used. Mice were housed under constant conditions of 12 h light/dark cycle in a […], with free access to standard laboratory mice food and water. All procedures related to care and maintenance of the animals were performed according to the international guiding principles for animal research and approved by the Faculty of Science, Suez Canal University bioethics and animal ethics committee (Approval number REC-07–2021).
Solid Ehrlich carcinoma (SEC) was purchased from the National Cancer Institute (Cairo University, Egypt). The tumour cell line was proliferated in mice through serial intraperitoneal (I.P.) transplantation of a volume of 0.2 ml physiological saline contains 1 × 10^6 viable cells for 24 h. SEC cells were collected 7 days after I.P. implantation. The harvested cells were diluted with saline to obtain a concentration of 5 × 10^6 viable SEC cells/mL. A volume of 0.2 ml saline contains 1 × 10^6 SEC cells that were I.P. implanted into each normal mouse. SEC cells (1 × 10^6 tumour cells/mouse) were implanted subcutaneously into the right thigh of the hind limb.
(§7) The experimental animals were randomly divided into four groups. Group 1 served as the normal saline control (5 ml/kg B.Wt., I.P.). Group 2 served as the SEC control (1 × 10^6 cells/mouse). Group 3 served as the compound-treated group (5 mg/kg B.Wt., I.P.). […] Bodyweight and survival were recorded daily until the 24th day in both treated and control groups. At the end of the experiment, the blood of each group was collected under light anaesthesia to the estimate of hematological and biochemical assays. The anaesthetised animals were then sacrificed for evaluation of the antitumor activity and histopathological examination.
It includes tumour volume, weight, and tumour inhibition ratio (TIR%). Time interval measurements of tumour volume using digital Vernier calliper (Tricle Brand, Shanghai, China). Measure tumour length and width using a clipper and then calculate tumour volume using formulations V = (L × W × W)/2, where V is tumour volume, W is tumour width, L is tumour length. While TIR% was calculated according to the following equation Tumor volume (Control)−Tumor volume (treated)/Tumor volume (control)× 100.

[4] = Histopathological examination of liver tissues of SEC-bearing mice; assay type: in vivo, Swiss albino mice; conditions: H&E stain, ×200
Method: as §7
Specimens of liver-sacrificed mice were fixed in 10% saline formalin. The fixed liver specimens were dehydrated in ascending series of ethyl alcohol and embedded in paraffin. Sections at […] thicknesses were stained with haematoxylin and eosin and examined under the light microscope.

With CCCc1nnc2c3ccccc3c(NN=Cc3ccc([N+](=O)[O-])cc3)nn12 [Compound 9d, 6-[2–(4-Nitrobenzylidene)hydrazineyl]-3-propyl-[1,2, 4]triazolo[3,4-a]phthalazine] the IC50 ([1]; Homo sapiens, HCT-116, MTT, mean ± SD of three separate experiments, read-out: In vitro Cytotoxicity IC50 HCT-116) was 4.74 ± 0.15 µM, the “times more active than doxorubicin, HCT-116” value ([1]; ratio of IC50 values vs doxorubicin) was 2.03 times and the IC50 [2] was 4.95 ± 0.1 µM. The IC50 (Calf thymus DNA) was 26.2 ± 1.14 µM, the tumour volume [3] was 19 mm^3 and the “reduction of the increase in solid tumour mass” value ([3]; compared to SEC control) was 63.4%. The solid tumour mass ([3]; SEC control 194 mg) was 71 mg, the “tumour inhibition ratio (TIR) %” value ([3]; from tumour volume, compared to control) was 64.5% and the “Histopathological finding in liver tissue” value [4] was “hepatic cells are near normal and show tissue improvement as compared with a little hydropic degeneration”.
